In patent publication US4713457A, “Ergoline derivatives and acid addition salts thereof” (priority 1985, dated 1987):
Where a name gives a salt, the structure may show the parent alone.

Experiments:
[1] = system: ddY male mice, KCN-induced anoxia; test: Activity on KCN-induced anoxia in mice; format: in vivo, mouse; conditions: for Number of Survived Mice/Total Mice / Survival Time: KCN 2.5 mg/kg i.v.; for Brain protection activity (in words): Table 5
[2] = system: Donryu male rats, indomethacin ulcer; test: Anti-ulcer activity, indomethacin-induced ulcer; format: in vivo, rat; conditions: for Ulcer Index Inhibition / Ulcer Index: 100 mg/kg oral, indomethacin 25 mg/kg; for Ulcer Index: **p < 0.01; for Anti-ulcer activity (in words): Table 4
Protocol: The test compound was administered orally to Donryu male rats weighing 240 to 300 g (7 rats per group) which have been fasting for 24 hours before testing, and, after 30 minutes, indomethacin was administered orally to the rats at a dose of 25 mg/kg. The rats were then maintained for 7 hours without feeding water and foods and then sacrificed. The stomach was extracted and fixed by infusing 7.5 ml of a 2% formalin solution into the stomach. The stomach was incised along the greater curvature thereof, and length (mm) of each ulcer generated in gastric glands was determined. The total length of the ulcer per rat was expressed in terms of an ulcer index.
In this experiment, the test compound was suspended in a 0.5% aqueous gum arabic and administered at a volume of 5 ml/kg. Indomethacin (manufacturedby Sigma Co., Ltd.) was administered as a 0.5 wt% aqueous suspension in sodium carboxymethyl cellulose at a volume of 5 ml/kg. As a control, a 0.5 wt% suspension of aqueous gum arabic was orally administered at a volume of 5 ml/kg.

[3] = system: Rats, pylorus portion ligated (gastric secretion); test: Gastric secretion inhibitory activity in pylorus-ligated rats; format: in vivo, rat
Protocol: Rats weighing 200 to 250 g (8 rats per group) which have been fasting for 24 hours before testing were subjected to abdominal section under ether anesthesia, and the pylorus portion was ligated. Immediately after ligation, the test compound was administered into the duodenum as a suspension in a 5 wt% aqueous gum arabic at a volume of 2 ml/kg. The rats were sacrificed after 6 hours, and the stomach was extracted. The gastric juice was collected to determine the volume thereof, and the acidity of the gastic juice was titrated to a pH 7.0 with a 0.02N aqueous sodium hydroxide solution using a pH meter. The acid secretion amount per 6 hours (μEq/6 h) was calculated by (volume of gastric juice×acidity of gastric juice).

[4] = system: unanesthetized spontaneously hypertensive rats; test: Anti-hypertensive activity, systolic blood pressure, tail cuff method; format: in vivo, rat; conditions: 10 mg/kg oral
Protocol: (§1) The anti-hypertensive activity of the compounds was determined by the tail cuff method using unanesthetized spontaneously hypertensive rats weighing 300 to 350 g (21 to 25 week old). In this experiment, the systolic blood pressure was determined by the bloodless method using a hemodynamometer. The heart rate was determined simultaneously using a sphygmometer connected to the pulse output. After rats were placed under condition of 40° C. for 10 minutes, the blood pressure was determined by holding the rats in a holder. The test compounds were suspended in a 0.5 wt% aqueous gum arabic. Hydralazine hydrochloride used as a comparative agent was administered as an aqueous solution thereof. The volume of oral administration was 0.5 ml per 100 g of body weight.

[5] = system: unanesthetized spontaneously hypertensive rats; test: Heart rate determined simultaneously with blood pressure (sphygmometer connected to the pulse output); format: in vivo, rat; conditions: 10 mg/kg oral
Protocol: as §1

[6] = 100 mg/kg into the duodenum, 6 hours
[7] = 10 mg/kg into the duodenum, 6 hours
[8] = 10 mg/kg into the duodenum, 6 hours, *p < 0.05

Structure (SMILES)	Changes in Systolic Blood Pressure ([4]; 1 hr after administration)	Changes in Systolic Blood Pressure ([4]; 2 hrs after administration)	Changes in Systolic Blood Pressure ([4]; 4 hrs after administration)	Changes in Systolic Blood Pressure ([4]; 6 hrs after administration)	Changes in Heart Rate ([5]; 1 hr after administration)	Changes in Heart Rate ([5]; 2 hrs after administration)	Changes in Heart Rate ([5]; 4 hrs after administration)	Changes in Heart Rate ([5]; 6 hrs after administration)	also measured
CC(C)(CO)[C@@H](O)C(=O)NCCCC(=O)O [Calsium Hopantenate]	–	–	–	–	–	–	–	–	Number of Survived Mice/Total Mice ([1]; 500 mg/kg i.p.): 0/9; Survival Time ([1]; 500 mg/kg i.p.): 43.8 ± 2.5 s; Brain protection activity (in words) [1]: did not show any significant activity
NC[C@H]1CC[C@H](C(=O)Oc2ccc(CCC(=O)O)cc2)CC1 [Cetraxate, p-hydroxyhydrocinnamic acid trans-(4-aminomethyl)cyclohexane carboxylate]	–	–	–	–	–	–	–	–	Ulcer Index Inhibition [2]: 14.9%; Ulcer Index [2]: 52.1 ± 8.7 mm; Anti-ulcer activity (in words) [2]: did not show any significant anti-ulcer activity
CN=C(NC#N)NCCSCc1nc[nH]c1C [Cimetidine, 1-cyano-2-methyl-3-[2-[[(5-methylimidazole-4-yl)methyl]thio]ethyl]guanidine, reference compound]	–	–	–	–	–	–	–	–	Volume of Acid Secreted ([3]; 100 mg/kg into the duodenum): 142.5 ± 60.5 μEq/6 h; Volume of Acid Secreted, Inhibition [3, 6]: 66.2%; Volume of Gastric Juice, Inhibition [3, 6]: 60.2%; Ulcer Index Inhibition [2]: 53.7%; Ulcer Index [2]: 28.3 ± 8.4 mm
CN1C[C@H](Cn2ccnc2)C[C@@H]2c3cccc4[nH]cc(c34)C[C@H]21 [Example 1, 1-(6-Methylergolin-8β-ylmethyl)imidazole]	-78 Δ mmHg	-49 Δ mmHg	-48 Δ mmHg	-60 Δ mmHg	-39 Δ/min.	-56 Δ/min.	-25 Δ/min.	-58 Δ/min.	Changes in Systolic Blood Pressure ([4]; 24 hrs after administration): -14 Δ mmHg; Volume of Acid Secreted, Inhibition [3, 7]: 73.3%; Volume of Gastric Juice, Inhibition [3, 7]: 67.8%; Total Acidity [3, 8]: 62.9 ± 3.8 mEq/liter; Changes in Heart Rate ([5]; 24 hrs after administration): -44 Δ/min.
CN1CC(=O)N(C[C@@H]2C[C@@H]3c4cccc5[nH]cc(c45)C[C@H]3N(C)C2)C1=O [Example 3, 1-Methyl-3-(6-methylergolin-8β-ylmethyl)imidazolidin-2,4-dione]	-57 Δ mmHg	-66 Δ mmHg	-31 Δ mmHg	-27 Δ mmHg	26 Δ/min.	1 Δ/min.	2 Δ/min.	-4 Δ/min.	Changes in Systolic Blood Pressure ([4]; 24 hrs after administration): -4 Δ mmHg; Survival Time ([1]; 10 mg/kg i.p., **p < 0.01, ***p < 0.001, survivors counted as 180 sec): 101.6 ± 17.8 s; Number of Survived Mice/Total Mice ([1]; 10 mg/kg i.p., survived longer than 3 minutes): 2/8; Volume of Acid Secreted, Inhibition [3, 7]: 52.9%; Volume of Gastric Juice, Inhibition [3, 7]: 48.4%; Total Acidity [3, 8]: 70.0 ± 5.3 mEq/liter; pH of gastric juice [3, 8]: 2.07 ± 0.22; Acid output per 6 h ([3]; 10 mg/kg into the duodenum, *p < 0.05): 198.7 ± 34.3 μEq/6 h; Changes in Heart Rate ([5]; 24 hrs after administration): 1 Δ/min.
CN1C[C@H](Cn2cccn2)C[C@@H]2c3cccc4[nH]cc(c34)C[C@H]21 [Example 4, 1-(6-Methylergolin-8β-ylmethyl)pyrazole]	-37 Δ mmHg	-51 Δ mmHg	-58 Δ mmHg	-49 Δ mmHg	-16 Δ/min.	-38 Δ/min.	-52 Δ/min.	-41 Δ/min.	Changes in Systolic Blood Pressure ([4]; 24 hrs after administration): -15 Δ mmHg; Changes in Heart Rate ([5]; 24 hrs after administration): -7 Δ/min.
CN1C[C@H](CN2C(=O)CCC2=O)C[C@@H]2c3cccc4[nH]cc(c34)C[C@H]21 [Example 8, N-(6-methylergolin-8β-ylmethyl)succinimide]	-64 Δ mmHg	-77 Δ mmHg	-59 Δ mmHg	-66 Δ mmHg	6 Δ/min.	3 Δ/min.	-32 Δ/min.	-40 Δ/min.	–
Cc1nccn1C[C@@H]1C[C@@H]2c3cccc4[nH]cc(c34)C[C@H]2N(C)C1 [Example 9, 2-Methyl-1-(6-methylergolin-8β-ylmethyl)imidazole]	-50 Δ mmHg	-59 Δ mmHg	-60 Δ mmHg	-55 Δ mmHg	-12 Δ/min.	-27 Δ/min.	-36 Δ/min.	-32 Δ/min.	Changes in Systolic Blood Pressure ([4]; 24 hrs after administration): -9 Δ mmHg; Changes in Heart Rate ([5]; 24 hrs after administration): -3 Δ/min.
CCc1nccn1C[C@@H]1C[C@@H]2c3cccc4[nH]cc(c34)C[C@H]2N(C)C1 [Example 10, 2-Ethyl-1-(6-methylergolin-8β-ylmethyl)imidazole]	-69 Δ mmHg	-64 Δ mmHg	-68 Δ mmHg	-66 Δ mmHg	2 Δ/min.	-15 Δ/min.	-6 Δ/min.	-11 Δ/min.	–
CC(C)c1nccn1C[C@@H]1C[C@@H]2c3cccc4[nH]cc(c34)C[C@H]2N(C)C1 [Example 11, 2-Isopropyl-1-(6-methylergolin-8β-ylmethyl)imidazole]	-53 Δ mmHg	-56 Δ mmHg	-54 Δ mmHg	-58 Δ mmHg	-37 Δ/min.	-21 Δ/min.	-24 Δ/min.	-46 Δ/min.	–
CCCc1nccn1C[C@@H]1C[C@@H]2c3cccc4[nH]cc(c34)C[C@H]2N(C)C1 [Example 12, 1-(6-Methylergolin-8β-ylmethyl)-2-propylimidazole]	-69 Δ mmHg	-59 Δ mmHg	-63 Δ mmHg	-59 Δ mmHg	-25 Δ/min.	-7 Δ/min.	-8 Δ/min.	-5 Δ/min.	–
CN1C[C@H](Cn2ccnc2-c2ccccc2)C[C@@H]2c3cccc4[nH]cc(c34)C[C@H]21 [Example 13, 1-(6-Methylergolin-8β-ylmethyl)-2-phenylimidazole]	-52 Δ mmHg	-46 Δ mmHg	-54 Δ mmHg	-48 Δ mmHg	-46 Δ/min.	-49 Δ/min.	-49 Δ/min.	–	–
CCOC(=O)c1ncn(C[C@@H]2C[C@@H]3c4cccc5[nH]cc(c45)C[C@H]3N(C)C2)c1C [Example 15B, ethyl 5-methyl-1-(6-methylergolin-8β-ylmethyl)-4-imidazolecarboxylate]	–	-49 Δ mmHg	-59 Δ mmHg	-59 Δ mmHg	-4 Δ/min.	5 Δ/min.	-8 Δ/min.	-11 Δ/min.	–
CN(C)CCOC(=O)COc1ccc(Cl)cc1 [Meclofenoxate Hydrochloride]	–	–	–	–	–	–	–	–	Number of Survived Mice/Total Mice ([1]; 200 mg/kg i.p.): 0/6; Survival Time ([1]; 200 mg/kg i.p.): 47.7 ± 4.4 s; Brain protection activity (in words) [1]: did not show any significant activity
CC(C)=CCOc1ccc(/C=C/C(=O)c2ccc(OCC=C(C)C)cc2OCC(=O)O)cc1 [Sofalcone]	–	–	–	–	–	–	–	–	Ulcer Index Inhibition [2]: 3.4%; Ulcer Index [2]: 59.2 ± 10.5 mm; Anti-ulcer activity (in words) [2]: did not show any significant anti-ulcer activity
